Experimental data from patent publication US20250275949A1, “USE OF DITERPENE COMPOUND DERIVATIVE OR SALT THEREOF IN PREPARATION OF MEDICINE FOR PREVENTING AND TREATING ATOPIC DERMATITIS” (SUZHOU PHARMAVAN CO., LTD, priority 2022, published 2025).

Tests used:
Format in all cases: in vivo, BALB/c mice
OXA-induced AD model [1] = experiment: OXA-induced AD mouse model, Example 1 (eight compounds in castor oil); settings: 0.1% in castor oil, day 7 to day 23; for OXA-induced AD-like lesions (conclusion of Example 1): auricle
From the text: Experimental animals involved in the following embodiments were SPF-grade BALB/c mice (≥7 weeks old, female). The scoring criteria for skin lesions involved in the following embodiments are shown in Table 1 and the histopathological scoring criteria are shown in Table 2. [table] The day of grouping was defined as day 0. Mice were randomly divided into 11 groups: blank control (NC) group, model (OXA) group, blank castor oil (vehicle) group, Compound 1 administration group, Compound 2 administration group, Compound 3 administration group, Compound 4 administration group, Compound 5 administration group, Compound 6 administration group, Compound 7 administration group, and Compound 8 administration 10 group, with 5 animals in each group. Each group except NC group was treated for modeling AD. Day 0:0.8%-OXA solution was applied to the auricle of both ears at 20 μL per ear. Day 7, 10, 12, 14, 17, 19, 21, and 23:0.4%-OXA solution was applied to the auricle of both ears at 20 μL per ear. Each group except NC group and OXA group was administrated. The administration started from day 7 to day 23, and the mice was administrated once a day at the auricle of both ears by 50 μL per ear (100 μL per mouse). The condition of the animals was observed during the experimental period, and the auricle was scored for skin lesions (see Table 1 for skin lesion scoring criteria), and the thickness of the ears was measured. [table]

MC903-induced AD model [2] = experiment: MC903-induced AD mouse model, Example 3 (ear swelling, skin thickness, mast cells, histopathology, serum IgE ELISA)
From the text: Experimental animals involved in the following embodiments were SPF-grade BALB/c mice (≥7 weeks old, female). The scoring criteria for skin lesions involved in the following embodiments are shown in Table 1 and the histopathological scoring criteria are shown in Table 2. [table] This example explores the preventive and therapeutic effect of a small-molecule diterpene derivative on the MC903-induced AD model, including the following: • The day of grouping was defined as day 0. Mice were randomly divided into 5 groups: blank control (NC) group, model (MC903) group, blank cream (vehicle) group, 0.1%-Compound 1 cream group, and 0.5%-Compound 1 cream group; each group had 10 animals. Each group except NC group was treated for modeling AD. From day 0 to day 10:0.1 nmol/μL-MC903 solution was applied to the auricle of right ear at 20 μL once a day. Each group except NC group and MC903 group was administrated. The administration started from day 3 to day 10, and the mice was administrated once a day at the auricle of right ear by 50 μL. The condition of the animals was observed during the experimental period. The mice were euthanized, and their ear tissues were retained for the degree of ear swelling measurement, skin thickness measurement, mast cell counting and immunohistochemical analysis, and their blood tissues were retained for ELISA. [table]

OXA-induced AD model [3] = experiment: OXA-induced AD mouse model, Example 2 (Compound 1 cream; lesion score, ear thickness, immunohistochemistry, Western Blot); settings: for right ear thickness on day 24 / skin lesion score on day 24: 50 μL per ear once a day, day 7 to day 23; for right ear thickness on day 24 / skin lesion score on day 24 / ICAM-1 positive rate, immunohistochemistry / Ki67 positive rate, immunohistochemistry / VCAM-1 positive rate, immunohistochemistry: vs vehicle group
From the text: Experimental animals involved in the following embodiments were SPF-grade BALB/c mice (≥7 weeks old, female). The scoring criteria for skin lesions involved in the following embodiments are shown in Table 1 and the histopathological scoring criteria are shown in Table 2. [table] The day of grouping was defined as day 0. Mice were randomly divided into 5 groups: blank control (NC) group, model (OXA) group, blank cream (vehicle) group, 0.1%-Compound 1 cream group, and 0.5%-Compound 1 cream group; the NC group had 5 animals, the other groups each had 10 animals. Each group except NC group was treated for modeling AD. Day 0:0.8%-OXA solution was applied to the auricle of both ears at 20 μL per ear. Day 7, 10, 12, 14, 17, 19, 21, and 23:0.4%-OXA solution was applied to the auricle of both ears at 20 μL per ear. Each group except NC group and OXA group was administrated. The administration started from day 7 to day 23, and the mice was administrated once a day at the auricle of both ears by 50 μL per ear (100 μL per mouse). The condition of the animals was observed during the experimental period, and the auricle was scored for skin lesions (see Table 1 for skin lesion scoring criteria), and the thickness of the ears was measured. The mice were euthanized, and their ear tissues were retained for immunohistochemistry and Western Blot analysis. [table]

MC903-induced AD model [4] = experiment: MC903-induced AD mouse model, itching symptoms (scratching times), Example 4; settings: cream 0.1% and 0.5%, right auricle, day 3 to day 10; video on the day before the experiment ended
From the text: Experimental animals involved in the following embodiments were SPF-grade BALB/c mice (≥7 weeks old, female). This example explores the preventive and therapeutic effect of a small-molecule diterpene derivative to itching symptoms on the MC903-induced AD model, including the following: • The day of grouping was defined as day 0. Mice were randomly divided into 5 groups: blank control (NC) group, model (MC903) group, blank cream (vehicle) group, 0.1%-Compound 1 cream group, and 0.5%-Compound 1 cream group; each group had 10 animals. Each group except NC group was treated for modeling AD. From day 0 to day 10:0.1 nmol/μL-MC903solution was applied to the auricle of right ear at 20 μL once a day. Each group except NC group and MC903 group was administrated. The administration started from day 3 to day 10, and the mice was administrated once a day at the auricle of right ear by 50 μL. The administration method for modeling and the design of subject dosage are same as Example 3. On the day before the experiment ended, the mice were videoed, and the mice of AD model were evaluated through the video about their scratching times in 15 min.

[5] = 50 μL per ear on auricle once a day, compared with vehicle group
[6] = cream 0.1% and 0.5%, right auricle, day 3 to day 10
[7] = cream, 0.1% and 0.5% groups together
[8] = cream, 0.1% and 0.5%, ear tissue

C=C1C(=O)[C@@]23[C@H](O)C[C@@H]4C(C)(C)c5nc(NC)sc5C[C@@]4(C)[C@@H]2CC[C@@H]1[C@H]3O [Compound 3]
skin lesion score on day 24 (OXA-induced AD model [1]; [5]): do not exert a significant anti-atopic dermatitis effect

C=C1C(=O)[C@@]23[C@H](O)C[C@@H]4C(C)(C)c5nc(N(CCC)CCC)sc5C[C@@]4(C)[C@@H]2CC[C@@H]1[C@H]3O [Compound 6]
skin lesion score on day 24 (OXA-induced AD model [1]; [5]): effectively reduce the skin lesion score | OXA-induced AD-like lesions (conclusion of Example 1) (OXA-induced AD model [1]): significantly ameliorate the OXA-induced AD-like lesions

C=C1C(=O)[C@@]23[C@H](O)C[C@@H]4C(C)(C)c5nc(NCC)sc5C[C@@]4(C)[C@@H]2CC[C@@H]1[C@H]3O [Compound 4]
skin lesion score on day 24 (OXA-induced AD model [1]; [5]): do not exert a significant anti-atopic dermatitis effect

C=C1C(=O)[C@@]23[C@H](O)C[C@@H]4C(C)(C)c5nc(N)sc5C[C@@]4(C)[C@@H]2CC[C@@H]1[C@H]3O [Compound 2]
skin lesion score on day 24 (OXA-induced AD model [1]; [5]): do not exert a significant anti-atopic dermatitis effect

C=C1C(=O)[C@@]23[C@H](O)C[C@@H]4C(C)(C)c5nc(N(CC)CC)sc5C[C@@]4(C)[C@@H]2CC[C@@H]1[C@H]3O [Compound 5]
skin lesion score on day 24 (OXA-induced AD model [1]; [5]): effectively reduce the skin lesion score | OXA-induced AD-like lesions (conclusion of Example 1) (OXA-induced AD model [1]): significantly ameliorate the OXA-induced AD-like lesions

C=C1C(=O)[C@@]23[C@H](O)C[C@@H]4C(C)(C)c5nc(Nc6ccncc6)sc5C[C@@]4(C)[C@@H]2CC[C@@H]1[C@H]3O [Compound 8]
right ear thickness on day 24 (OXA-induced AD model [1]; [5]): Vehicle group>Compound 8 group | skin lesion score on day 24 (OXA-induced AD model [1]; [5]): do not exert a significant anti-atopic dermatitis effect

C=C1C(=O)[C@@]23[C@H](O)C[C@@H]4C(C)(C)c5nc(N(C(C)C)C(C)C)sc5C[C@@]4(C)[C@@H]2CC[C@@H]1[C@H]3O [Compound 7]
skin lesion score on day 24 (OXA-induced AD model [1]; [5]): effectively reduce the skin lesion score | OXA-induced AD-like lesions (conclusion of Example 1) (OXA-induced AD model [1]): significantly ameliorate the OXA-induced AD-like lesions

C=C1C(=O)[C@@]23[C@H](O)C[C@@H]4C(C)(C)c5nc(N(C)C)sc5C[C@@]4(C)[C@@H]2CC[C@@H]1[C@H]3O [Compound 1]
degree of ear swelling (MC903-induced AD model [2]; cream 0.1% and 0.5%, 50 μL on right auricle once a day, day 3 to day 10): effectively ameliorate the ear swelling | dermal thickness (ear histological scanning) (MC903-induced AD model [2]; [6]): effectively ameliorate the thickening of epidermis and dermis | epidermal thickness (ear histological scanning) (MC903-induced AD model [2]; [6]): effectively ameliorate the thickening of epidermis and dermis | histopathology scores (total, parakeratosis, epidermal defect, dermal papilla thickening, capillary proliferation, inflammatory infiltration), HE staining (MC903-induced AD model [2]; [6]): effectively ameliorates the extent of MC903-induced AD-like lesions | mast cell counting (toluidine blue staining of ear tissue sections) (MC903-induced AD model [2]; [6]): significantly reduces the number of mast cells | serum IgE concentration (ELISA) (MC903-induced AD model [2]; [6]): inhibits the serum IgE concentration | MC903-induced AD-like lesions (conclusion of Example 3) (MC903-induced AD model [2]; cream, 0.1% and 0.5%): significantly ameliorate the MC903-induced AD-like lesions | right ear thickness on day 24 (OXA-induced AD model [3]; 0.1% cream): statistically different from the vehicle group | skin lesion score on day 24 (OXA-induced AD model [3]; 0.1% cream): statistically different from the vehicle group | ICAM-1 positive rate, immunohistochemistry (OXA-induced AD model [3]; 0.1% cream, ear tissue): reduced | Ki67 positive rate, immunohistochemistry (OXA-induced AD model [3]; 0.1% cream, ear tissue): reduced (statistically different) | VCAM-1 positive rate, immunohistochemistry (OXA-induced AD model [3]; 0.1% cream, ear tissue): reduced | right ear thickness on day 24 (OXA-induced AD model [3]; 0.5% cream): statistically different from the vehicle group | skin lesion score on day 24 (OXA-induced AD model [3]; 0.5% cream): statistically different from the vehicle group | ICAM-1 positive rate, immunohistochemistry (OXA-induced AD model [3]; 0.5% cream, ear tissue): reduced | Ki67 positive rate, immunohistochemistry (OXA-induced AD model [3]; 0.5% cream, ear tissue): reduced (statistically different) | VCAM-1 positive rate, immunohistochemistry (OXA-induced AD model [3]; 0.5% cream, ear tissue): reduced | OXA-induced AD-like lesions (conclusion of Example 2) (OXA-induced AD model [3]; cream, 0.1% and 0.5%): significantly ameliorate the OXA-induced AD-like lesions | ear thickness (conclusion) (OXA-induced AD model [3]; [7]): effectively ameliorate the ear thickness | epidermal overproliferation (Ki67) and aberrant expression of adhesion factor (ICAM-1, VCAM-1), conclusion (OXA-induced AD model [3]; [7]): effectively inhibit the epidermal overproliferation and aberrant expression of adhesion factor | skin lesion score (conclusion) (OXA-induced AD model [3]; [7]): effectively reduce the skin lesion score | ICAM-1 protein expression (gray value), Western Blot (OXA-induced AD model [3]; [8]): consistent with the immunohistochemical results | VCAM-1 protein expression (gray value), Western Blot (OXA-induced AD model [3]; [8]): consistent with the immunohistochemical results | skin lesion score on day 24 (OXA-induced AD model [1]; [5]): effectively reduce the skin lesion score | OXA-induced AD-like lesions (conclusion of Example 1) (OXA-induced AD model [1]): significantly ameliorate the OXA-induced AD-like lesions | scratching times in 15 min (extent of itching) (MC903-induced AD model [4]): effectively ameliorates the extent of itching
